Patent US6673807B1, “Immunosuppressive imidazole derivatives and their combination preparations with tacrolimus or cyclosporins” (Fujisawa Pharmaceutical Co., Ltd., priority 1998, dated 2004)

Columns and labels:
[1] = test system: production of nitric oxide in RAW264.7 cells; experiment: Assay for inhibitory activity on the production of nitric oxide (Griess, LPS + INFγ activated cells); type: cell-based, murine; conditions: Mus musculus; test compound 10^-5 M; RAW264.7 cells activated with LPS 1 μg/ml and INFγ 3 u/ml for 18-24 hours
Method: Test: Assay for Inhibitory Activity on the Production of Nitric Oxide
The murine macrophage cell line RAW264.7 (American Type Culture Collection, No. TIB71) was used in this study. RAW264.7 cells were grown on F75 plastic culture flasks at 37° C., 5% in Dulbecco's modified Eagle's medium (DMEM) supplemented with L-glutamine, penicillin, streptomycin and 10% heat-inactivated fetal bovine serum. They were removed from culture flasks by rubber cell scraper and were centrifuged and resuspended in DMEM without phenol red. They were plated in 96-well microtiter plates (10^5 cells per well) and allowed to adhere over 2 hours. The test samples were added and the cells were preincubated for 1 hour. Thereafter the cells were activated with both of lipopolysaccharide (LPS) (1 μg/ml) and interferon γ (INFγ) (3 u/ml) for 18-24 hours. An equal volume of Griess reagent (1% sulfanilamide/0.1% N-naphthylethylenediamine dihydrochloride/2.5% H3PO4) was added and the cells were incubated at room temperature for 10 minutes. The absorbance was read at 570 nm using microplate reader and NO2 was measured using NaNO2 as a standard.

NOx in rat plasma = experiment: Concentration of nitrite/nitrate (NOx) in rat plasma after cardiac transplantation (Griess reaction); type: in vivo
Method: (§1) Experiments were performed on male Lewis and ACI rats weighing 175-200 g. Rats were anesthetized with sodium pentobarbital (50 mg/kg, i.p), and performed allogeneic (Lewis donor to ACI recipient) heterotopic intra-abdominal cardiac transplantation. Experimental groups were divided into single-drug group and combined-drug groups. Single-drug dose of FK506 was 0.32 mg/kg. Combined-dose groups were FK506(0.32 mg/kg)+the compound (f) (3.2 mg/kg), FK506(0.32 mg/kg)+the compound (f) (10 mg/kg), and FK506(0.32 mg/kg)+the compound (g) (10 mg/kg). The grafted hearts were monitored by daily palpation and complete rejection was defined as the cessation of palpable contractile activity. Drugs were suspended in a solution of 0.5% methylcellulose, and administered by daily gastric intubation in a volume of 5 ml/kg of body weight for 14 days. The blood samples were collected on 5 days after transplantation for analysis of nitrite/nitrate (NOx). The concentration of NOx in rat plasma was measured by using a spectrophotometric assay based upon the Griess reaction.

rat cardiac allograft = experiment: Rat cardiac allograft survival (Lewis donor to ACI recipient, heterotopic intra-abdominal cardiac transplantation); type: in vivo; conditions: for MST (Median Survival Time): daily gastric intubation for 14 days
Method: Protective effect of the compound (f) or (g) combined with FK506 on rat cardiac allograft:
as §1

Compound | inhibition at 10 µM [1] | also measured
CCOc1ccc(-c2c(Cc3ccccc3)nc([C@H](Cc3ccccn3)NC(=O)c3cc4ccccc4[nH]3)n2C)cc1 [(a)] | 100% | –
Cn1c(-c2ccc([N+](=O)[O-])cc2)cnc1[C@H](Cc1ccccn1)NC(=O)c1cc2cc(Cl)ccc2[nH]1 [(b)] | 100% | –
Cn1c(-c2ccc([N+](=O)[O-])cc2)cnc1[C@H](CC(=O)Nc1ccccn1)NC(=O)c1cc2ccccc2[nH]1 [(c)] | 100% | –
COc1ccc(NC(=O)C[C@H](NC(=O)c2cc3ccccc3[nH]2)c2ncc(-c3ccc([N+](=O)[O-])cc3)n2C)cc1 [(d)] | 100% | –
Cn1c(-c2ccc([N+](=O)[O-])cc2)cnc1[C@H](CC(=O)Nc1ccc2c(c1)OCO2)NC(=O)c1cc2ccccc2[nH]1 [(e)] | 100% | –
Cn1c(-c2ccc(N3CCOCC3)cc2)cnc1[C@H](Cc1ccccn1)NC(=O)c1cc2cc(Cl)ccc2o1 [(g)] | 100% | elevated NOx production during cardiac allograft rejection (NOx in rat plasma; rat cardiac allograft, in a dose-dependent manner): inhibited; MST (Median Survival Time) (rat cardiac allograft; Table 2, compound (g) 10 mg/kg + FK506 0.32 mg/kg): >30 days; graft survival (rat cardiac allograft; combination with FK506, rat cardiac allograft): dramatically prolonged
C=CC[C@@H]1/C=C(\C)C[C@H](C)C[C@H](OC)[C@H]2O[C@@](O)(C(=O)C(=O)N3CCCC[C@H]3C(=O)O[C@H](/C(C)=C/[C@@H]3CC[C@@H](O)[C@H](OC)C3)[C@H](C)[C@@H](O)CC1=O)[C@H](C)C[C@@H]2OC [FK506, 17-allyl-1,14-dihydroxy-12-[2-(4-hydroxy-3-methoxycyclohexyl)-1-methylvinyl]-23,25-dimethoxy-13,19,21,27-tetramethyl-11,28-dioxa-4-azatricyclo[22.3.1.0^4,9]octacos-18-ene-2,3,10,16-tetraone, reference compound] | – | NOx (NOx in rat plasma; Table 1, FK506 0.32 mg/kg alone, rat plasma, 5 days after transplantation): >40 µM; MST (Median Survival Time) (rat cardiac allograft; Table 1, FK506 0.32 mg/kg alone): 8.5 days; MST (Median Survival Time) (rat cardiac allograft; Table 2, FK506 0.32 mg/kg alone): 10 days
